According to PMC8003343 (Pharmaceuticals, 2021):
Each block holds one compound with its values, some of them ahead of it.

Columns and labels:
[1] = In vitro intrinsic clearance in human liver microsomes (HLM); format: in vitro ADME
Experimental: (§1) Liver microsomes from Sprague Dawley rats (RLM), CD-1 mice (MLM), beagle dogs (DLM), Göttinger mini pigs (MPLM), rhesus monkeys (RMLM), and humans (HLM, specified total P450 content: 0.286 nmol/mg protein) were obtained from Thermo Fisher Scientific/Life Technologies (Darmstadt, Germany). Optimization of incubation conditions (microsomal protein concentration, substrate solvent, incubation buffer) has been carried out in a previous study. For assessment of intrinsic clearance (CLint), substrate (8 µM CBX, MCBX or CPFPX, stock solutions in DMSO) and microsomes (0.4 mg/mL RLM, MLM, DLM and MPLM, 2.0 mg/mL HLM and 0.04 mg/mL RMLM) were preincubated for 5 min at 37 °C in HEPES buffer (100 mM, pH 7.4) containing MgCl2 (3.3 mM). Enzymatic reactions were initiated by addition of preheated NADPH (1.3 mM) and were allowed to proceed for 30 min. Aliquots (100 µL) were sampled from the incubation mixture (500 µL total volume) at 0 and 30 min. An equal volume of a mixture of MeOH/MeCN (50:50, v/v, cooled to −20 °C) was added to terminate the reaction. After subsequent homogenization on a vortex mixer (1 min, 21 °C) and centrifugation (10 min, 20,000× g rcf, 21 °C), the supernatants (50 µL aliquots) were analyzed via HPLC-UV/VIS (Knauer smartline system equipped with a Rheodyne type 7125 sample injector and a 500 µL sample loop). Chromatographic conditions were as follows. Column: 4.6 mm × 250 mm Kromasil 100-5-C18 (AkzoNobel, Bohus, Sweden); eluent composition: MeCN/H2O/AcOH 48:52:0.2 (v/v/v); flow rate: 1 mL/min; detection wavelength: 275 nm. Microsomal assays were performed in quadruplicate.
(§2) Elimination rate constants (k) of CBX, MCBX, and CPFPX were derived via linear regression analysis of semi-logarithmic peak area vs. time plots.
(§3) In vitro half-life (t1/2) was calculated as:(1) t1/2=ln2/k
(§4) In vitro intrinsic clearance was calculated as follows:(2) Clint=ln2/t1/2[…] where c is the microsomal protein concentration. Since the main focus of the study was to compare CLint between species, but not between compounds, no correction for the microsomal unbound fraction was applied.

[2] = In vitro intrinsic clearance in rat liver microsomes (RLM); format: in vitro ADME, Sprague Dawley rats; settings: microsomes from rat, mouse, mini pig, and rhesus
Experimental: as §1, §2, §3, §4

[3] = In vitro intrinsic clearance in dog liver microsomes (DLM); format: in vitro ADME, beagle dogs
Experimental: as §1, §2, §3, §4

[4] = Metabolite profiles in liver microsomes from various species (HPLC-UV/LCMS); format: in vitro ADME, human, rat, mouse, dog, mini pig, rhesus monkey; settings: for species whose metabolite profile is most similar to the human metabolite profile: liver microsomes; for Species (liver microsomes in which the peak was found): h human, r rat, m mouse, d dog, mp mini pig, rh rhesus, brackets indicate minor peaks, 275 nm; for number of metabolites produced by microsomal metabolism: in the microsomes of the test species
Experimental: Microsomal assays aimed at metabolite profiling were conducted according to the protocol described in Section 4.3.1, but with 10 µL substrate (CBX, MCBX, CPFPX) in a total incubation volume of 1 mL. In Table 6, microsomal protein concentrations and incubation times used in the individual assays are listed. Blank samples containing all matrix components but no substrate were included. Incubations were terminated by adding two volumens of a mixture of MeOH/MeCN (50:50, v/v, cooled to −20 °C). Samples were then vortexed (1 min, 21 °C), centrifuged (10 min, 20,000× g rcf, 21 °C), and evaporated to dryness using a centrifugal vacuum concentrator (Concentrator 5301, Eppendorf, Wesseling-Berzdorf, Germany) set to a temperature of 45 °C. Dried samples were reconstituted with 160 µL HPLC eluent (MeCN/H2O/AcOH 35:65:0.1 (v/v/v)) and centrifuged (3 min, 20,000× g rcf, 21 °C). Aliquots of the clear supernatant (25 µL) were subsequently injected into the HPLC system. Chromatographic parameters were the same as described in Section 4.3.1, except for the addition of a 3 mm NH2 guard column (OPTI-GUARD, Optimize Technologies Inc., Oregon City, OR, USA). For LCMS analyses, the UV-detector outlet was coupled to a mass spectrometer (MSQ PlusTM, Thermo Electron Corporation, San Jose, CA, USA) via an electrospray interface. LCMS parameters were as follows. Nebulizer M gas pressure: 6 bar; desolvation temperature: 500 °C; positive ion mode (ESI+); sprayer voltage: 3000 V; cone voltages: 50 V (unfragmented spectra) or 185 V (fragmented spectra), m/z range 1–800; scan time: 1 s. Mass spectra were analyzed using Xcalibur software (version 3.0).

[5] = In vitro intrinsic clearance in rhesus monkey liver microsomes (RMLM); format: in vitro ADME, rhesus monkeys; settings: rhesus vs human liver microsomes; highest ratio among the three compounds
Experimental: as §1, with “Aliquots (100 µL) were sampled from the incubation mixture (500 µL total volume) at 0 and 30 min. An equal volume of a mixture of MeOH/MeCN (50:50, v/v, cooled to −20 °C) was added to terminate the reaction.” left out, “Chromatographic conditions were as follows. Column: 4.6 mm × 250 mm Kromasil 100-5-C18 (AkzoNobel, Bohus, Sweden); eluent composition: MeCN/H2O/AcOH 48:52:0.2 (v/v/v); flow rate: 1 mL/min; detection wavelength: 275 nm. Microsomal assays were performed in quadruplicate.” left out
as §3
In vitro intrinsic clearance was calculated as follows:(2) Clint=ln2/t1/2×c where c is the microsomal protein concentration. […]

[6] = set-up: method as in PMID 1441590; settings: human microsomes from a single donor; cited from earlier work
[7] = from [18F]CPFPX; cited from earlier work
[8] = from [18F]CPFPX; cited from earlier work; remark: listed apart in the source
[9] = rats and mice after [18F]CPFPX injection; cited from earlier work
[10] = radiometabolite of [18F]CPFPX; cited from earlier work
[11] = Enone metabolite formation in human liver microsomes; format: in vitro ADME; settings: 6 at 4 µM, 1.0 mg/mL HLM, 150 min
Experimental: (§5) In preliminary experiments, the potential enone precursors 5–8 (8 µM) were incubated with either RLM (0.4 mg/mL) or HLM (0.8 mg/mL) for up to 4 h according to the protocol given in Section 4.3.1. Multiple samples were taken during incubation and analyzed with regard to the presence of the enone metabolite 4 in the incubation mixture.
(§6) The time course of the formation of 4 from precursor 6 was monitored by incubation of 6 (4 µM) with either 1.0 mg/mL HLM for 150 min or 0.4 mg/mL RLM for 100 min according to the procedures described in Section 4.3.1. but with a prolonged centrifugation cycle (15 min) for protein precipitation. Chromatographic separation was performed on a Kromasil C18 column (see Section 4.3.1) equipped with a 3 mm NH2 guard column (OPTI-GUARD, Optimize Technologies Inc., Oregon City, OR, USA) using an eluent composed of MeCN/H2O/AcOH 45:55:0.1 (v/v/v). All other chromatographic parameters resembled those given above. Incubations were conducted in triplicate.

[12] = Enone metabolite formation in rat liver microsomes; format: in vitro ADME; settings: 6 at 4 µM, 0.4 mg/mL RLM, 100 min
Experimental: as §5, §6

Structure (SMILES): Cn1c(=O)c2c(ncn2C)n(C)c1=O [caffeine]
rate of metabolism in hepatic microsomes, species comparison [6]: considerably higher in hepatic microsomes from humans than in those from rats or monkeys

Structure (SMILES): CCCn1c(=O)c2[nH]c(C3=CCCC3)nc2n(CCCF)c1=O [compound 6, 8-(Cyclopent-1-en-1-yl)-3-(3-fluoropropyl)-1-propylxanthine]
metabolic fate (time course) in human liver microsomes [11]: biotransformation proceeds from 6 via 9 to 4
metabolic fate (time course) in rat liver microsomes [12]: oxidized to produce 9

Structure (SMILES): CCCn1c(=O)c2[nH]c(C3=CC(O)CC3)nc2n(CCCF)c1=O (centres unmarked) [compound 9, 3-(3-fluoropropyl)-8-(3-hydroxycyclopent-1-en-1-yl)-1-propylxanthine]
metabolic fate (time course) in human liver microsomes [11]: further metabolized to 4
metabolic fate (time course) in rat liver microsomes [12]: remained constant

Continued, in another order:

rank order of CLint [1]: CBX > CPFPX > MCBX
rank order of CLint [2]: CPFPX > MCBX > CBX
rank order of CLint [3]: CPFPX > MCBX ≈ CBX
species whose metabolite profile is most similar to the human metabolite profile [4]: rhesus monkey and mini pig
Species (liver microsomes in which the peak was found) ([4]; substrate CBX): (h), r, m, d, (mp), rh
Structure (SMILES): CCCn1c(=O)c2[nH]c(C3CCC3)nc2n(CCCF)c1=O [CBX, 8-Cyclobutyl-3-(3-fluoropropyl)-1-propylxanthine]

rank order of CLint [1]: CBX > CPFPX > MCBX
rank order of CLint [2]: CPFPX > MCBX > CBX
rank order of CLint [3]: CPFPX > MCBX ≈ CBX
CLint in rhesus microsomes relative to human microsomes (fold higher) [5]: 134 fold
number of metabolites produced by microsomal metabolism [4]: up to 12 metabolites
Species (liver microsomes in which the peak was found) ([4]; substrate CPFPX): h, r, m, d, mp, rh
Structure (SMILES): CCCn1c(=O)c2nc(C3CCCC3)[nH]c2n(CCCF)c1=O [CPFPX, 8-Cyclopentyl-3-(3-fluoropropyl)-1-propylxanthine]

rank order of CLint [1]: CBX > CPFPX > MCBX
rank order of CLint [2]: CPFPX > MCBX > CBX
rank order of CLint [3]: CPFPX > MCBX ≈ CBX
number of metabolites produced by microsomal metabolism [4]: up to 10 metabolites
species whose metabolite profile is most similar to the human metabolite profile [4]: Rodent
Species (liver microsomes in which the peak was found) ([4]; substrate MCBX): h, r, m, d, mp, rh
Structure (SMILES): CCCn1c(=O)c2[nH]c(C3(C)CCC3)nc2n(CCCF)c1=O [MCBX, 3-(3-Fluoropropyl)-8-(1-methylcyclobutyl)-1-propylxanthine]

species microsomes generating the enone metabolite from CPFPX ([4]; substrate CPFPX): exclusively in human and dog microsomes
Species (liver microsomes in which the peak was found) ([4]; substrate CPFPX): h, d
Structure (SMILES): CCCn1c(=O)c2[nH]c(C3=CC(=O)CC3)nc2n(CCCF)c1=O [compound 4, 3-(3-Fluoropropyl)-8-(3-oxocyclopent-1-en-1-yl)-1-propylxanthine]
formation of the enone radiometabolite in human microsomes [7]: extensive formation
formation of the enone radiometabolite in microsomes from rats and mice [8]: almost no significant amounts could be detected
formation of the enone metabolite in vivo (plasma) [9]: generated in vivo
blood–brain barrier penetration [10]: does not penetrate the blood–brain barrier
excretion from the body [10]: slow excretion from the body
